Test results: paper PMC12102759 (Protein Science : A Publication of the Protein Society, 2025)

Test system: PABPC1 PABC
Assay type: binding, human
Settings: DMS-BM library, bait PABPC1 PABC, row aa = residue at this position
[1] = prey ATXN2, peptide KSTLNPNAKEFNPRSF, P = wild type
[2] = prey ATXN2, peptide KSTLNPNAKEFNPRSF, S = wild type
[3] = prey ATXN2, TLNPNAKEFNPRSF(averaged) over the two overlapping peptides, N = wild type
[4] = prey ATXN2, TLNPNAKEFNPRSF(averaged) over the two overlapping peptides, F = wild type
[5] = prey ATXN2, peptide KSTLNPNAKEFNPRSF, N = wild type
[6] = prey ATXN2, peptide KSTLNPNAKEFNPRSF, F = wild type
[7] = prey ATXN2, TLNPNAKEFNPRSF(averaged) over the two overlapping peptides, S = wild type
[8] = prey ATXN2, peptide TLNPNAKEFNPRSFSQ, K = wild type
[9] = prey ATXN2, peptide TLNPNAKEFNPRSFSQ, P = wild type
[10] = prey ATXN2, peptide TLNPNAKEFNPRSFSQ, S = wild type
[11] = prey ATXN2, peptide KSTLNPNAKEFNPRSF, K = wild type
[12] = prey ATXN2, TLNPNAKEFNPRSF(averaged) over the two overlapping peptides, P = wild type
[13] = prey ATXN2, peptide KSTLNPNAKEFNPRSF, E = wild type
[14] = prey ATXN2, TLNPNAKEFNPRSF(averaged) over the two overlapping peptides, T = wild type
[15] = prey ATXN2, peptide TLNPNAKEFNPRSFSQ, R = wild type
[16] = prey ATXN2, peptide TLNPNAKEFNPRSFSQ, F = wild type
[17] = prey ATXN2, peptide TLNPNAKEFNPRSFSQ, T = wild type
[18] = prey ATXN2, peptide KSTLNPNAKEFNPRSF, L = wild type

Substance: KSTLNPNAKEFNPRSF P6R (KSTLNRNAKEFNPRSF)
- DMS-derived PSSM value, position P6 [1]: 0

Substance: TLNPNAKEFNPRSF(averaged) A6Q (TLNPNQKEFNPRSF)
- DMS-derived PSSM value (averaged), position A6 (prey ATXN2, TLNPNAKEFNPRSF(averaged) over the two overlapping peptides, A = wild type): 0

Substance: KSTLNPNAKEFNPRSF S2E (KETLNPNAKEFNPRSF)
- DMS-derived PSSM value, position S2 [2]: 0.01242

Substance: TLNPNAKEFNPRSF(averaged) N3R (TLRPNAKEFNPRSF)
- DMS-derived PSSM value (averaged), position N3 [3]: 0.012

Substance: TLNPNAKEFNPRSF(averaged) F9V (TLNPNAKEVNPRSF)
- DMS-derived PSSM value (averaged), position F9 [4]: 0.0004395

Substance: TLNPNAKEFNPRSF(averaged) F14M (TLNPNAKEFNPRSM)
- DMS-derived PSSM value (averaged), position F14 [4]: 0.1425

Substance: KSTLNPNAKEFNPRSF N7P (KSTLNPPAKEFNPRSF)
- DMS-derived PSSM value, position N7 [5]: 0

Substance: TLNPNAKEFNPRSF(averaged) L2F (TFNPNAKEFNPRSF)
- DMS-derived PSSM value (averaged), position L2 (prey ATXN2, TLNPNAKEFNPRSF(averaged) over the two overlapping peptides, L = wild type): 0.05162

Substance: KSTLNPNAKEFNPRSF F11V (KSTLNPNAKEVNPRSF)
- DMS-derived PSSM value, position F11 [6]: 0

Substance: TLNPNAKEFNPRSFSQ A6D (TLNPNDKEFNPRSFSQ)
- DMS-derived PSSM value, position A6 (prey ATXN2, peptide TLNPNAKEFNPRSFSQ, A = wild type): 0

Substance: TLNPNAKEFNPRSF(averaged) S13D (TLNPNAKEFNPRDF)
- DMS-derived PSSM value (averaged), position S13 [7]: 0.02964

Substance: TLNPNAKEFNPRSFSQ K7A (TLNPNAAEFNPRSFSQ)
- DMS-derived PSSM value, position K7 [8]: 0.2382

Substance: TLNPNAKEFNPRSFSQ P4Q (TLNQNAKEFNPRSFSQ)
- DMS-derived PSSM value, position P4 [9]: 0.03549

Substance: TLNPNAKEFNPRSFSQ S13Q (TLNPNAKEFNPRQFSQ)
- DMS-derived PSSM value, position S13 [10]: 0.0185

Substance: KSTLNPNAKEFNPRSF F11T (KSTLNPNAKETNPRSF)
- DMS-derived PSSM value, position F11 [6]: 0

Substance: KSTLNPNAKEFNPRSF F11N (KSTLNPNAKENNPRSF)
- DMS-derived PSSM value, position F11 [6]: 0.09626

Substance: TLNPNAKEFNPRSF(averaged) K7E (TLNPNAEEFNPRSF)
- DMS-derived PSSM value (averaged), position K7 (prey ATXN2, TLNPNAKEFNPRSF(averaged) over the two overlapping peptides, K = wild type): 0.01581

Substance: TLNPNAKEFNPRSF(averaged) N10L (TLNPNAKEFLPRSF)
- DMS-derived PSSM value (averaged), position N10 [3]: 0.09868

Substance: KSTLNPNAKEFNPRSF R14K (KSTLNPNAKEFNPKSF)
- DMS-derived PSSM value, position R14 (prey ATXN2, peptide KSTLNPNAKEFNPRSF, R = wild type): 0.002275

Substance: KSTLNPNAKEFNPRSF K9S (KSTLNPNASEFNPRSF)
- DMS-derived PSSM value, position K9 [11]: 0.05789

Substance: TLNPNAKEFNPRSF(averaged) N3S (TLSPNAKEFNPRSF)
- DMS-derived PSSM value (averaged), position N3 [3]: 0.2635

Substance: KSTLNPNAKEFNPRSF S2L (KLTLNPNAKEFNPRSF)
- DMS-derived PSSM value, position S2 [2]: 0.006151

Substance: TLNPNAKEFNPRSF(averaged) F14I (TLNPNAKEFNPRSI)
- DMS-derived PSSM value (averaged), position F14 [4]: 0.0374

Substance: TLNPNAKEFNPRSF(averaged) F9W (TLNPNAKEWNPRSF)
- DMS-derived PSSM value (averaged), position F9 [4]: 0.4279

Substance: TLNPNAKEFNPRSF(averaged) N5S (TLNPSAKEFNPRSF)
- DMS-derived PSSM value (averaged), position N5 [3]: 0.02321

Substance: TLNPNAKEFNPRSF(averaged) P11M (TLNPNAKEFNMRSF)
- DMS-derived PSSM value (averaged), position P11 [12]: 0.00553

Substance: KSTLNPNAKEFNPRSF E10F (KSTLNPNAKFFNPRSF)
- DMS-derived PSSM value, position E10 [13]: 0

Substance: TLNPNAKEFNPRSFSQ P11M (TLNPNAKEFNMRSFSQ)
- DMS-derived PSSM value, position P11 [9]: 0.01106

Substance: TLNPNAKEFNPRSF(averaged) T1D (DLNPNAKEFNPRSF)
- DMS-derived PSSM value (averaged), position T1 [14]: 0.05337

Substance: TLNPNAKEFNPRSFSQ S15Q (TLNPNAKEFNPRSFQQ)
- DMS-derived PSSM value, position S15 [10]: 0.01622

Substance: TLNPNAKEFNPRSFSQ R12L (TLNPNAKEFNPLSFSQ)
- DMS-derived PSSM value, position R12 [15]: 0.01731

Substance: TLNPNAKEFNPRSF(averaged) R12S (TLNPNAKEFNPSSF)
- DMS-derived PSSM value (averaged), position R12 (prey ATXN2, TLNPNAKEFNPRSF(averaged) over the two overlapping peptides, R = wild type): 0.1293

Substance: TLNPNAKEFNPRSFSQ F14W (TLNPNAKEFNPRSWSQ)
- DMS-derived PSSM value, position F14 [16]: 0.01201

Substance: KSTLNPNAKEFNPRSF F16H (KSTLNPNAKEFNPRSH)
- DMS-derived PSSM value, position F16 [6]: 0.03107

Substance: KSTLNPNAKEFNPRSF P6D (KSTLNDNAKEFNPRSF)
- DMS-derived PSSM value, position P6 [1]: 0

Substance: KSTLNPNAKEFNPRSF K9L (KSTLNPNALEFNPRSF)
- DMS-derived PSSM value, position K9 [11]: 0.07486

Substance: KSTLNPNAKEFNPRSF E10Q (KSTLNPNAKQFNPRSF)
- DMS-derived PSSM value, position E10 [13]: 0

Substance: TLNPNAKEFNPRSFSQ T1V (VLNPNAKEFNPRSFSQ)
- DMS-derived PSSM value, position T1 [17]: 0.03168

Substance: TLNPNAKEFNPRSFSQ R12T (TLNPNAKEFNPTSFSQ)
- DMS-derived PSSM value, position R12 [15]: 0.06242

Substance: KSTLNPNAKEFNPRSF T3L (KSLLNPNAKEFNPRSF)
- DMS-derived PSSM value, position T3 (prey ATXN2, peptide KSTLNPNAKEFNPRSF, T = wild type): 0.01491

Substance: KSTLNPNAKEFNPRSF K9R (KSTLNPNAREFNPRSF)
- DMS-derived PSSM value, position K9 [11]: 0.0319

Substance: KSTLNPNAKEFNPRSF S2G (KGTLNPNAKEFNPRSF)
- DMS-derived PSSM value, position S2 [2]: 0.02803

Substance: KSTLNPNAKEFNPRSF E10T (KSTLNPNAKTFNPRSF)
- DMS-derived PSSM value, position E10 [13]: 0.1693

Substance: TLNPNAKEFNPRSF(averaged) T1Y (YLNPNAKEFNPRSF)
- DMS-derived PSSM value (averaged), position T1 [14]: 0.168

Substance: TLNPNAKEFNPRSF(averaged) N10Q (TLNPNAKEFQPRSF)
- DMS-derived PSSM value (averaged), position N10 [3]: 0.06161

Substance: TLNPNAKEFNPRSF(averaged) S13V (TLNPNAKEFNPRVF)
- DMS-derived PSSM value (averaged), position S13 [7]: 0.05819

Substance: KSTLNPNAKEFNPRSF F16P (KSTLNPNAKEFNPRSP)
- DMS-derived PSSM value, position F16 [6]: 0.0009324

Substance: TLNPNAKEFNPRSFSQ K7H (TLNPNAHEFNPRSFSQ)
- DMS-derived PSSM value, position K7 [8]: 0.02911

Substance: KSTLNPNAKEFNPRSF L4D (KSTDNPNAKEFNPRSF)
- DMS-derived PSSM value, position L4 [18]: 0

Substance: TLNPNAKEFNPRSFSQ F14N (TLNPNAKEFNPRSNSQ)
- DMS-derived PSSM value, position F14 [16]: 0.0664

Substance: KSTLNPNAKEFNPRSF E10V (KSTLNPNAKVFNPRSF)
- DMS-derived PSSM value, position E10 [13]: 0.1837

Substance: KSTLNPNAKEFNPRSF N12I (KSTLNPNAKEFIPRSF)
- DMS-derived PSSM value, position N12 [5]: 0.02863

Substance: TLNPNAKEFNPRSF(averaged) F14T (TLNPNAKEFNPRST)
- DMS-derived PSSM value (averaged), position F14 [4]: 0.01392

Substance: TLNPNAKEFNPRSFSQ K7D (TLNPNADEFNPRSFSQ)
- DMS-derived PSSM value, position K7 [8]: 0.01281

Substance: TLNPNAKEFNPRSFSQ E8W (TLNPNAKWFNPRSFSQ)
- DMS-derived PSSM value, position E8 (prey ATXN2, peptide TLNPNAKEFNPRSFSQ, E = wild type): 0

Substance: TLNPNAKEFNPRSF(averaged) P11E (TLNPNAKEFNERSF)
- DMS-derived PSSM value (averaged), position P11 [12]: 0.00334

Substance: KSTLNPNAKEFNPRSF L4F (KSTFNPNAKEFNPRSF)
- DMS-derived PSSM value, position L4 [18]: 0

Substance: TLNPNAKEFNPRSF(averaged) E8K (TLNPNAKKFNPRSF)
- DMS-derived PSSM value (averaged), position E8 (prey ATXN2, TLNPNAKEFNPRSF(averaged) over the two overlapping peptides, E = wild type): 0.03159

Substance: TLNPNAKEFNPRSF(averaged) P4I (TLNINAKEFNPRSF)
- DMS-derived PSSM value (averaged), position P4 [12]: 0.2825

Substance: TLNPNAKEFNPRSFSQ F9H (TLNPNAKEHNPRSFSQ)
- DMS-derived PSSM value, position F9 [16]: 0

Substance: TLNPNAKEFNPRSF(averaged) N10I (TLNPNAKEFIPRSF)
- DMS-derived PSSM value (averaged), position N10 [3]: 0.01803

Substance: TLNPNAKEFNPRSF(averaged) P4V (TLNVNAKEFNPRSF)
- DMS-derived PSSM value (averaged), position P4 [12]: 0.4012

Substance: TLNPNAKEFNPRSFSQ T1L (LLNPNAKEFNPRSFSQ)
- DMS-derived PSSM value, position T1 [17]: 0.1166

Substance: TLNPNAKEFNPRSF(averaged) P11S (TLNPNAKEFNSRSF)
- DMS-derived PSSM value (averaged), position P11 [12]: 0.02695

Substance: TLNPNAKEFNPRSFSQ N3I (TLIPNAKEFNPRSFSQ)
- DMS-derived PSSM value, position N3 (prey ATXN2, peptide TLNPNAKEFNPRSFSQ, N = wild type): 0
